Test results published in PMC11001709, “Anti-toxoplasma activity and DNA-binding of copper(II) and zinc(II) coordination compounds with 5-nitroimidazole-based ligands” (Journal of Biological Inorganic Chemistry, 2023).
Values after ≈ are worked out from the molar mass of the structure shown.

Tests used:
[1] = test system: Euryhaliotrema perezponcei; design: method as in doi:10.1016/j.poly.2013.09.030, PMID 28917638; settings: in vitro and in vivo assays; cited from earlier work
[2] = Distribution coefficient LogD7.4, shake-flask 1-octanol/MOPS buffer; type: physicochemical; settings: 1-octanol/MOPS buffer, pH 7.4, octanol/water (MOPS buffer 10^–2 M), 25 °C
Method: Solutions between 100 and 10 µM of the free ligands (cenz and onz) and the coordination compounds 3–10 were prepared in a MOPS buffer pH 7.4 as the aqueous phase and in 1-octanol as the organic phase. The absorption at 320 nm and 310 nm was determined for the aqueous and organic phase respectively by electronic spectroscopy (UV–Vis). Through a linear regression (concentration vs. absorption) the molar extinction coefficient of each compound in both phases was determined (Table 3). The lipophilicity was calculated in the 1-octanol/water system from the shake flask method using Eq. 1 [39]:1 […] where, Co is the final concentration in the organic phase and Cw is the final concentration in the aqueous phase (MOPS buffer at 10^–2 M pH 7.4). Both phases were presaturated with 50 µM solutions of the free ligands or 500 µM of each coordination compound and their UV spectrum was recorded. Both phases were combined and kept stirring for 3 h at 25 °C and in the absence of light. Subsequently, the mixture was centrifuged at 400g and the concentration in both phases was determined by UV–Vis spectroscopy using the Beer-Lambert law. The assays were performed in triplicate.
The T gondii parasite is an apicomplex organism; it requires a host cell to live, so it is important that the drugs used against the parasite have easy access to the cell. The lipophilicity of a compound is an important physicochemical property to determine its ability to permeate the biological membrane through passive diffusion; which usually is measured from the distribution coefficient logD7.4 = log(Co/Cw), in n-octanol/water. The shake-flask method was used to determine the LogD7.4 values from the molar extinction coefficients of the coordination compounds and the ligands in the two solvents (Table 3).

pBR322 plasmid DNA = test: Agarose gel electrophoresis, DNA cleavage; type: biochemical; settings: for %Damage / %Nicked / %Supercoiled: compound 50 (mM in the source)
Method: Electrophoresis assays were performed in 1.5% agarose gel and 1× TBE buffer using the DNA plasmid pBR322. The plasmid (15 µM base pairs) was incubated with 10 and 50 μM concentrations of the coordination compounds for 1 h at 37 °C in presence and absence of ascorbic acid (50 μM) as reducing agent and hydrogen peroxide (500 µM) as ROS generator in a final volume of 20 μL. The DNA-cleaving compound [Cu(phen)2(H2O)](NO3)2 was used as reference. The samples were loaded into the gel with 4 μL of a loading buffer (30% glycerol, 5 mM xylene cyanol), and electrophoresis was performed in 1× TBE at 100 V for 1 h in a Bio-Rad horizontal tank. Subsequently, the gel was stained with SYBR™ Safe overnight and images were acquired with a Gel Doc EZ Imager instrument (Bio-Rad).
Distinct forms of pBR322 plasmid DNA are commonly observed by gel electrophoresis due to the conformational changes that present distinct electrophoretic mobility: (1) supercoiled DNA (Form I) that migrates faster on the gel, (2) circular nicked (Form II), obtained from a one-strand scission, has a slower migration through the gel and (3) linear form (Form III) is generated when both strands are cleaved and migrates between forms I and II [54]. The interaction of the free ligands and their copper(II) and zinc(II) coordination compounds with pBR322 was investigated in presence of H2Asc (50 μM) as reducing agent and H2O2 (500 μM) as ROS generator. Solutions of 10 and 50 µM of the coordination compounds were incubated with the DNA at 37 °C for 1 h.

[3] = test system: RH tachyzoites of Toxoplasma gondii; test: Viability of extracellular tachyzoites, Sytox Green exclusion test; type: cell-based; settings: 1 h
Method: RH tachyzoites of Toxoplasma gondii were extracted in PBS solution at pH 7.4 from intraperitoneal fluid of infected CD1 mice on the third day of infection and centrifuged for ten minutes at 260g. Purified parasites were used within 4 h after their isolation.
The viability of the parasites was determined from staining with Sytox Green® fluorescent dye exclusion test. Purified tachyzoites (1 × 10^6) were incubated for one hour at room temperature with PBS solutions of the coordination compounds or the free ligands at concentrations of 40, 20, 10, 5, and 2.5 µM (0.1% DMSO), in a volume final of 1 mL. After the incubation time, the samples were centrifuged for 10 min at 250g, the medium was removed and 20 µL of Sytox Green® was added after 15 min of incubation for differentiate dead parasites in a Neubauer chamber. The assays were performed in triplicate. The half maximal inhibitory concentration (IC50) was calculated by Boltzmann regression analysis and expressed as mean ± standard error of three replicates. Based on the results the tachyzoites were incubated under the same conditions with the coordination compounds [Cu(onz)2Cl2] and [Cu(onz)2Br2] at their respective IC50 values, Sytox Green® was then added, and they were observed by fluorescence microscopy. Sulfadiazine was used as positive control.
Viability assays were performed against tachyzoites of Toxoplasma gondii. The RH strain was used to evaluate the effect of different concentrations (namely, 2.5, 5, 10, 20 and 40 µM) of the coordination compounds and the free 5-nitroimidazole against the tachyzoites. The evaluation were performed in PBS buffer (pH 7.4) with Sytox Green® exclusion test, which allows differentiating dead from live tachyzoites, since the intact cell membrane of alive ones is not stained.

Entamoeba histolytica = settings: cited from earlier work
ct-DNA = test: Circular dichroism of ct-DNA; type: binding, calf; settings: [DNA]b = 50 µM, [complex]/[DNA] 0-2, 1 h 37 °C
Method: For the UV–Vis, fluorescence and circular dichroism assays the concentration of ct-DNA was determined on a Varian Cary 100 Scan spectrophotometer from the absorption at 260 nm and the corresponding molar absorptivity of 6600 M^−1 cm^−1 (nucleobase concentration). The stock solutions of the coordination compounds and the free ligands were prepared in cacodylate/NaCl buffer (1 mM cacodylic acid and 20 mM sodium chloride) at pH 7.25. The final samples contained a DMSO concentration of 0.2%.
Circular dichroism (CD) spectra were recorded using a JASCO-815 spectropolarimeter, equipped with xenon-arc lamp of 450 W. The sample compartment was air-purged with N2 before use. For the measurements, a quartz cuvette with an optical path of 5 mm was used. A solution of 25 µM (in base pairs) of ct-DNA in cacodylate/NaCl buffer was incubated for 1 h at 37 °C with increasing amounts of coordination compounds (0–50 µM). The CD spectra were recorded at room temperature.
The interaction of small molecules with DNA can modify these CD signals depending on the type of binding. Intercalative interactions increase the intensity of the signals, as the result of an increase of the stability of the B conformation, whereas groove binding or covalent interactions tend to decrease the intensity of these signals, which are moreover displaced. The CD spectra for both ligands and their copper(II) and zinc(II) complexes were obtained at constant concentration of ct-DNA, increasing the complex concentration up to two equivalents ([complex]/[DNA] ratios of 0, 0.2, 0.4, 1, 2) with respect to the nucleobases concentration ([DNA]b = 50 µM).

[4] = intraperitoneal injection; cited from earlier work

CCS(=O)(=O)CCn1c([N+](=O)[O-])cnc1C.CCS(=O)(=O)CCn1c([N+](=O)[O-])cnc1C.[Br][Cu][Br] [[Cu(tnz)2Br2]]
parasite mortality percentage [1]: 100%

Cc1ncc([N+](=O)[O-])n1CC(O)CCl (centres unmarked) [onz, 1-(3-chloro-2-hydroxypropyl)-2-methyl-5-nitroimidazole, reference compound]
logD at 3 h [2]: 0.64 | %Damage (pBR322 plasmid DNA; + H2Asc): 11.80% | %Nicked (pBR322 plasmid DNA; + H2Asc): 5.60% | %Supercoiled (pBR322 plasmid DNA; + H2Asc): 88.20% | %Damage (pBR322 plasmid DNA; + H2Asc + H2O2): 8.80% | %Nicked (pBR322 plasmid DNA; + H2Asc + H2O2): 4.30% | %Supercoiled (pBR322 plasmid DNA; + H2Asc + H2O2): 91.20% | %Damage (pBR322 plasmid DNA; + H2O2): 10.70% | %Nicked (pBR322 plasmid DNA; + H2O2): 8.90% | %Supercoiled (pBR322 plasmid DNA; + H2O2): 89.30% | %Damage (pBR322 plasmid DNA; no additive): 9.80% | %Nicked (pBR322 plasmid DNA; no additive): 7.60% | %Supercoiled (pBR322 plasmid DNA; no additive): 90.20% | DNA cleavage (in words) (pBR322 plasmid DNA; with and without H2Asc / H2O2): did not provoke any significant DNA cleavage | activity against T. gondii ([3]; 2.5-40 µM, PBS): did not show activity | MIC (Entamoeba histolytica): 12.5 µM (≈ 2.75 µg/mL) | effect on CD spectrum of ct-DNA (bands at 275 and 245 nm) (ct-DNA): did not affect the DNA structure

Nc1ccc(S(=O)(=O)Nc2ncccn2)cc1 [sulfadiazine, reference compound]
LD50 [4]: 180 mg/kg | IC50 ([3]; Toxoplasma gondii, PBS pH 7.4, mean ± standard error of three replicates, read-out: IC50): > 1600 µM
